In patent publication US20020081266A1, “Spray dried powders for pulmonary or nasal administration” (Norton Healthcare Ltd., priority 1999, published 2002):

What was measured:
[1] = Scanning electron microscopy (SEM) particle diameter; type: physicochemical; conditions: for Particle diameters by SEM: spray dried from ethanolic solution
Description: Scanning Electron Microscopy (SEM)
The scanning electron microscope used was the Hitachi S-3500N variable pressure scanning electron microscope. Samples were mounted and sputtered with gold spray for SEM.
The scanning electron microscope used was the Hitachi S-3500N variable pressure scanning electron microscope. Samples were mounted on aluminium stubs and spluttered with gold spray for SEM.

[2] = starting material
Description: Thermogravimetric Analysis (TGA)
Thermogravimetric analysis was carried out using a Mettler TG 50 linked to a Mettler MT5 balance. Data was processed using Mettler Toledo STAR software Version 5.1 with a Solaris operating system. Sample weights were between 5 and 10 mg and analysis was carried out under nitrogen purge. The scans were run from 30 to 350° C. at a heating rate of 10° C./minute. Two TGA scans were obtained for each system.

| Molecule | Average particle diameter by SEM ([1]; starting material, not spray dried) | Temperature from which TGA mass loss due to degradation occurs [2] [°C] | Particle diameters by SEM [1] [μm] |
| --- | --- | --- | --- |
| COc1ccc(C[C@@H](C)NC[C@H](O)c2ccc(O)c(NC=O)c2)cc1.COc1ccc(C[C@@H](C)NC[C@H](O)c2ccc(O)c(NC=O)c2)cc1.O=C(O)/C=C/C(=O)O [Formoterol fumarate, formoterol fumarate] | 0.5-5 μm | ≥ 150 |  |
| CC(C)[N+]1(C)[C@@H]2CC[C@H]1CC(OC(=O)C(CO)c1ccccc1)C2.[Br-] (stereo partly shown) [Ipratropium bromide, ipratropium bromide] |  |  | ≥ 60 |
| salbutamol sulphate |  |  | < 3 |
